Measured values published in US11291674B2 (CALITHERA BIOSCIENCES, INC., priority 2016, dated 2022).
Values joined by “and” are separate entries in the source; they are usually repeats but may differ in a detail not shown here. Identical values can stand only once. “Also recorded” adds a separate entry of the source.

How the values were obtained:
CT26 lung metastases = test: Adoptive NK cell transfer study, CT26 lung metastasis model; format: in vivo, mouse; details: compared to control groups, 14 days
Description: Adoptive NK cell transfer studies. Balb/c mice were inoculated i.v. with 1×10^5 CT26 cells. 1×10^6NK cells (isolated from Balb/c spleens the day before injection and incubated with recombinant IL-2 and IL-15 for 18 h) were transferred on the same day as tumor inoculation. The injected NK cells were profiled by flow cytometry to be CD25^+ and 80-90% pure with less than 0.4% T cells.

[1] = target: T1, Recombinant murine inducible NOS (Mus musculus, UniProt P29477); test: NOS activity assay, inducible NOS; format: biochemical; details: 50 μM arginase inhibitor
T1 construct: Eurofins/Cerep Panlabs (contract laboratory that ran the assay)
From the text: (§1) Nitric oxide (NO) synthase (NOS) activity assays.
(§2) Standard deviations are indicated in parentheses. […] N/A=not applicable.

Recombinant human Arg2 = target: T2, Recombinant human Arg2 (Homo sapiens, UniProt P78540); test: Recombinant arginase activity assay, Arg2; format: biochemical; details: mean (SD), N=2, 20 mM L-arginine
T2 construct: Recombinant human arginase 2 (Arg2) comprising amino acids […] was purchased from US Biological; purchased US Biological
T2 sequence (P78540 23-354): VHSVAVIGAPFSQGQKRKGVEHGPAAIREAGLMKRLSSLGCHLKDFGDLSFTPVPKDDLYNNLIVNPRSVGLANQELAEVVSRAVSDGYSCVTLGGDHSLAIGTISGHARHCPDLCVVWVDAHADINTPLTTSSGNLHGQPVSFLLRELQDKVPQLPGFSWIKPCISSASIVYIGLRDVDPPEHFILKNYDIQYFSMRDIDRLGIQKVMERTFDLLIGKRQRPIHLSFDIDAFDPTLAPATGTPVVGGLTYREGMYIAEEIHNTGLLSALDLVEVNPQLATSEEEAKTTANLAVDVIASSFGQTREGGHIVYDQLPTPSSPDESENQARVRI
From the text: Recombinant arginase activity assays. […] Recombinant human arginase 2 (Arg2) comprising amino acids […] was purchased from US Biological (Salem, Mass.).
as §2

CT26 tumors = format: in vivo
From the text: Murine tumor studies. Female wild-type C57BL/6 and Balb/c mice (5-6 weeks old) were purchased from Charles River Laboratories (Hollister, Calif.). Severe combined immune deficient (SCID, B6.CB17-PrkdcSCID/SzJ) and Pmel-1 TCR transgenic (B6.Cg-Thyla/Cy Tg(TcraTcrb)8Rest/J) mice (5-6 weeks old) were purchased from The Jackson Laboratory (Bar Harbor, Me.). All mice were housed and treated in accordance with Institutional Animal Care and Use Committee guidelines. For the 4T1 tumor model, 1×10^5 cells were injected orthotopically into the mammary fat pad; for all other tumor models, 1×10^6 cells were injected subcutaneously (s.c.) in the right flank. […] Control groups received vehicle (water) twice daily by gavage. Tumor volume measured by digital caliper (length×width×width/2) and body weight were recorded three times weekly. Animals were euthanized when tumors necrotized or volumes reached 2000 mm^3. Anti-PD-L1 antibody (5 mg/kg, clone 10F.9G2, BioXCell, West Lebanon, N.H.) was injected intraperitoneally (i.p.) on days 5, 7, 9, 11, 13, and 15 for the CT26 model. Gemcitabine (Selleckchem, Houston, Tex.) was dosed 50 mg/kg i.p. on days 10 and 16 for the CT26 model or 60 mg/kg i.p. on days 6 and 10 for the LLC model. For CD8^+ cell depletion, mice were injected i.p. with anti-CD8 antibody (25 mg/kg, clone 2.43, BioXCell) on days −1, 0, +5, and +10. For NK cell depletion, mice were injected i.p. with anti-NK1.1 antibody (25 mg/kg, clone PK136, BioXCell) in the LLC and B16 models or with anti-Asialo GM1 sera (20 μL, Wako Chemicals, Richmond, Va.) in the CT26 model, per the same schedule as anti-CD8.
Tumor dissociation and flow cytometry. […] Excised tumors were placed in RPMI-1640 containing 5% FBS on ice, minced with a razor blade, and dissociated in RPMI-1640 supplemented with mouse tumor dissociation enzymes (Miltenyi Biotec, Bergisch Gladbach, Germany) on a GentleMACS Octo Dissociator With Heat (Miltenyi Biotec) according to the manufacturer's instructions. Dissociated tumors were strained through 70 μm nylon mesh, washed with cold PBS containing 2% FBS, blocked with anti-CD16/CD32 (Fc block antibody, eBioscience), and stained for cell surface antigens. For B16 and 4T1 tumors, washed dissociated tumor cells were incubated with Dead Cell Removal MicroBeads (Miltenyi Biotec) and applied to a magnetic column prior to staining. For intracellular staining, cells were fixed and permeabilized using buffers purchased from R&D Systems or eBioscience for cytoplasmic or nuclear antigens, respectively. All tumor flow experiments were acquired on an Attune N×T flow cytometer and analyzed with FlowJo software version 10 (Ashland, Oreg.), using fluorescence-minus-one controls for gating and single-stained OneComp eBeads (eBioscience) to set compensation matrices.

[2] = target: T3, Rat cerebellar neuronal NOS (Rattus norvegicus, UniProt P29476); test: NOS activity assay, neuronal NOS; format: biochemical; details: 50 μM arginase inhibitor
T3 construct: native rat cerebellar neuronal NOS; tissue Eurofins/Cerep Panlabs (contract laboratory that ran the assay); host or cells: rat cerebellum
From the text: as §1, §2

[3] = target: T4, Recombinant bovine endothelial NOS (Bos taurus, UniProt P29473); test: NOS activity assay, endothelial NOS; format: biochemical; details: 50 μM arginase inhibitor
T4 construct: Eurofins/Cerep Panlabs (contract laboratory that ran the assay)
From the text: as §1, §2

[4] = system: intracellular arginase in Human HepG2 cell line; test: Native arginase activity in intact cells, HepG2; format: cell-based; details: mean (SD), N=3, 10 mM L-arginine, urea in media after 24 h
From the text: Native arginase activity in intact cells.
Standard deviations are indicated in parentheses.

C[C@H](N)C(=O)N1C[C@H](CCCB(O)O)[C@](N)(C(=O)O)C1 [arginase inhibitor]
Lung metastases, combination with NK cells (CT26 lung metastases): significantly fewer lung metastases | Inhibition of inducible NOS [1]: No inhibition | IC50 (Recombinant human Arg2): 274 nM and 296 nM | Tumor growth, single agent (CT26 tumors; 100 mg/kg BID PO): significantly inhibited the growth; also recorded: reduced | Tumor-infiltrating activated CD25+ CD8+ cytotoxic T cells vs vehicle (CT26 tumors; 100 mg/kg BID, study day 14, flow cytometry): increase | Efficacy after depletion of either CD8+ cells or NK cells (CT26 tumors; 100 mg/kg twice daily, depleting antibodies): blocked the efficacy | Tumor growth inhibition, combination with anti-PD-L1 (CT26 tumors; arginase inhibitor 100 mg/kg BID plus anti-PD-L1 5 mg/kg i.p., vs monotherapies): enhanced | Survival at study day 46, combination with anti-PD-L1 (CT26 tumors; arginase inhibitor plus anti-PD-L1): 90% | Complete responses, combination with anti-PD-L1 (CT26 tumors; arginase inhibitor plus anti-PD-L1, N=10 per group): six | Tumor growth inhibition, combination with gemcitabine (CT26 tumors; gemcitabine 50 mg/kg i.p. days 10 and 16): significant increase in tumor growth inhibition | Inhibition of neuronal NOS [2]: No inhibition | Inhibition of endothelial NOS [3]: No inhibition | IC50 [4]: 32000 nM
